According to BindingDB's records for doi:10.1021/jm800052b (Genentech, 2008):

Assays:
[1] = molecular target: Aurora kinase B (Homo sapiens, UniProt Q96GD4); test: Enzyme Inhibition Assay; conditions: pH 7.5; 22 °C
Experimental: (§1) Aurora kinase was assayed in ELISA format using a GST fusion of the N-terminus of Histone H3 as substrate. Plates were coated with substrate, and then blocked with I-block (Tropix) in PBS. After kinase reaction, product was detected by incubation with antiphosphohistone H3 (Ser10) 6G3 mouse monoclonal antibody and sheep-antimouse HRP conjugate, followed by washing and addition of TMB substrate.

[2] = molecular target: T1, Aurora kinase A (Homo sapiens, UniProt O14965); test: Enzyme Inhibition Assay; conditions: pH 7.5; 22 °C
T1 sequence (O14965 whole entry): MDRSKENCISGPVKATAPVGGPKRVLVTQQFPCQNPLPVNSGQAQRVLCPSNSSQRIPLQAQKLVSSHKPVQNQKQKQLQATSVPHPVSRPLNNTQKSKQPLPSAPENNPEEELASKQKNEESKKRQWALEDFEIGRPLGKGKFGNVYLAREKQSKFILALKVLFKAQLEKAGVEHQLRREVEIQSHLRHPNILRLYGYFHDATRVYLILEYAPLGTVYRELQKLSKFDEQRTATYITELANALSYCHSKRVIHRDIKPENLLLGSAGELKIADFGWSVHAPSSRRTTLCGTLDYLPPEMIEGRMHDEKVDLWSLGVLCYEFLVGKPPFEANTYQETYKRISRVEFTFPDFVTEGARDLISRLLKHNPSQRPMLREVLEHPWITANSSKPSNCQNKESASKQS
Experimental: as §1

Aurora kinase B, sequence (Q96GD4 whole entry, the tested form may be a part): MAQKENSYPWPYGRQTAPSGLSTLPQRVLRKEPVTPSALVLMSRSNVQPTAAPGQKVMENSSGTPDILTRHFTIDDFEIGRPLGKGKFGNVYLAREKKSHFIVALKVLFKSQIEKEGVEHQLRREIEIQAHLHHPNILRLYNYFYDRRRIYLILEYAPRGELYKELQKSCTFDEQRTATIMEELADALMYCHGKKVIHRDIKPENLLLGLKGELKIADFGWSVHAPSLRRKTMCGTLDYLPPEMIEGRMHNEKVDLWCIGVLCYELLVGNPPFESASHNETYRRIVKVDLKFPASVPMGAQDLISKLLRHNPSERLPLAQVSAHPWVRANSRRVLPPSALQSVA

IC50 [1] | IC50 [2] | SMILES
0.022 µM | 0.042 µM | Cc1[nH]nc2c1CCCc1c-2[nH]c2ccccc12 [5-methyl-3,4,17-triazatetracyclo[8.7.0.0^{2,6}.0^{11,16}]heptadeca-1(10),2,5,11,13,15-hexaene]
< 0.002 µM | – | Cc1[nH]nc2c1CCCc1c-2[nH]c2cc3c(cc12)NC(=O)C3(C)C [7,7,16-trimethyl-5,11,14,15-tetraazapentacyclo[10.8.0.0^{2,10}.0^{4,8}.0^{13,17}]icosa-1(12),2,4(8),9,13,16-hexaen-6-one]
